In patent US11446352B2, “Compositions and methods for inhibiting tumor-induced immune suppression” (priority 2017, dated 2022):

Test system: E0771 murine cells
Assay: autophagy in E0771 cells (fluorescence micrographs)
Format: cell-based

CC[C@H](C)[C@H]1C(=O)O[C@H](C(C)C)C(=O)N(C)[C@@H]([C@@H](C)CC)C(=O)O[C@H](C(C)C)C(=O)N(C)[C@@H]([C@@H](C)CC)C(=O)O[C@H](C(C)C)C(=O)N1C [EnnA, Enniatin A]
autophagy: induces autophagy
